Reference: patent US20140194529A1, “USAGE OF NATURAL COMPOUND FOR TREATING INFLAMMATION AND CANCER” (Hong Kong Baptist University, priority 2013, published 2014)
Where two headings read alike, the source gives them in different places.

How the values were obtained:
Assay type in all cases: cell-based
[1] = test system: iNOS-induced NO generation in RAW 264.7 cells; experiment: NO accumulation in LPS/IFN-γ stimulated RAW 264.7 cells (Griess reaction); conditions: 24 hours
Description: (§1) RAW264.7 were maintained in RPMI 1640 medium supplemented with 10% FBS at 37° C. in a humidified 5% CO2 atmosphere. Cells were plated in a 96-well plate (5×10^3 cells/well) and allowed to attach overnight. The cells were then stimulated with 10 U/ml of IFN-γ and 100 ng/ml of LPS for 24 hours in the presence or absence of GE with final concentration of 50, 25, 12.5, 6.25, 3.125 μg/mL, and Indometacin as positive drug.
as §1, with “For stimulation, the medium was replaced with fresh FBS-free RPMI 1640 for 10 hours, and the” for “The”, “extractions or fractions.” for “GE with final concentration of 50, 25, 12.5, 6.25, 3.125 μg/mL, and Indometacin as positive drug.”
iNOS function was analyzed with Griess reaction by assay of nitrite concentration in the culture supernatant. Briefly, 100 μl/well of sample was incubated with equal volume of Griess solution (1% sulfanilamide in 5% phosphoric acid+1% α-naphthylamine in distilled water) at room temperature for 10 minutes. The absorbance was evaluated at 540 nm using a calibration curve with a sodium nitrite standard. Percent inhibition was expressed as [1−(NO level of sample/NO level of vehicle treated−control)]×100.

HepG2 = experiment: Cell cytotoxicity, MTT method; conditions: HepG2, 72 hours, read-out: The cell cytotoxicity effect, IC50
Description: (§2) RAW 264.7 cells were obtained from the American Tissue Culture Collection (ATCC). Liver cancer line SMMC-7721 and HepG2, breast cancer lines including MCF-7 and MDA-MB-231 were purchased from cell-bank of Chinese Academy of Sciences, China. These cells were maintained in complete RPMI 1640 medium supplemented with 10% FBS at 37° C. in a humidified 5% CO2 atmosphere.
(§3) SMMC-7721 and HepG2, MCF-7 and MDA-MB-231 were seeded into 96-well plates (3×10^3 cells/well) and allowed to attach overnight. GE were added in final concentration of 50, 25, 12.5, 6.25, 3.125 μg/mL and continually cultured for 72 hours. Taxol as positive drug. Each well was incubated with 20 μl MTT (5 mg/ml in phosphate-buffered saline) for 4 hours at 37° C. Volume of 150 μl DMSO was added after the medium in well discarded and reacted for 10 minutes. Absorbance was measured at 490 nm. The optical density of formazan formed in control (untreated) cells was taken as 100% of viability. Mean value of each concentration (n=3 wells) was obtained.

MCF-7 = experiment: Cell cytotoxicity, MTT method; conditions: read-out: The cell cytotoxicity effect, IC50
Description: as §2, §3

MDA-MB-231 = experiment: Cell cytotoxicity, MTT method; conditions: MDA-MB-231, 72 hours
Description: as §2, §3

SMMC-7721 = experiment: Cell cytotoxicity, MTT method; conditions: SMMC-7721, 72 hours, read-out: The cell cytotoxicity effect, IC50
Description: as §2, §3

[2] = test system: breast cancer lines and liver cancer lines; experiment: Cell cytotoxicity, MTT method (summary in conclusion)
Description: as §2, §3

With `COc1ccc2c(c1)c(CC(=O)O)c(C)n2C(=O)c1ccc(Cl)cc1` [Indometacin, reference compound] the inhibition at 1 µg/mL ([1]; Mus musculus, RAW264.7, 1 μg/mL, RAW 264.7, IFN-γ + LPS, read-out: The inhibitory effect on NO accumulation) was 46.5%.

Molecule `CC(=O)O[C@H]1C(=O)[C@@]2(C)[C@H]([C@H](OC(=O)c3ccccc3)[C@]3(O)C[C@H](OC(=O)[C@H](O)[C@@H](NC(=O)c4ccccc4)c4ccccc4)C(C)=C1C3(C)C)[C@]1(OC(C)=O)CO[C@@H]1C[C@@H]2O` [Taxol, reference compound] has an IC50 (HepG2; Homo sapiens) of 0.00044 µM, an IC50 (MCF-7; Homo sapiens, MCF7, MCF-7, 72 hours) of 0.003 µM and an IC50 (MDA-MB-231; Homo sapiens, read-out: The cell cytotoxicity effect, IC50) of 5 µM. The IC50 (SMMC-7721; Homo sapiens) was 0.15 µM.

Garcimultiflorone E [GE] was tested, and the “The inhibitory effect on NO accumulation, IC50” value ([1]; RAW 264.7, 10 U/ml IFN-γ + 100 ng/ml LPS) was 3.57 µg/mL, the IC50 ([1]; RAW 264.7, 10 U/ml IFN-γ + 100 ng/ml LPS, read-out: The inhibitory effect on NO accumulation, IC50) was 5.78 µM and the IC50 (HepG2) was 13.2 µM. For the same molecule, the IC50 (MCF-7; MCF-7, 72 hours) was 9.63 µM, the “Effect on proliferation (in words)” value (MDA-MB-231) was “no effect” and the IC50 (SMMC-7721) was 11.9 µM. For the same molecule, the “Concentration at which proliferation is inhibited” value [2] was “about 10 μM”.
